Data from the NIST ThermoML archive (doi:10.1016/j.jct.2007.07.002).
“And” between values parts separate entries of the source, which are not always exact repeats. Equal values may be shown once.

Details: Gas, double Helmholtz acoustic resonator

FC1(F)C(F)(F)C(F)(F)C1(F)F [octafluorocyclobutane]
Details	kinematic viscosity [m2/s]	speed of sound
300 K, 160.13 kPa	8.54e-07	109.85 m/s
300 K, 180.38 kPa	7.62e-07	109.17 m/s
300 K, 209.45 kPa	6.47e-07	108.13 m/s
300 K, 239.58 kPa	5.55e-07	107.04 m/s
310 K, 167.11 kPa	1.04e-06	111.91 m/s
310 K, 212.21 kPa	6.65e-07	110.44 m/s
310 K, 259.63 kPa	5.45e-07	108.88 m/s
310 K, 319.54 kPa	4.4e-07	106.84 m/s
310 K, 359.99 kPa	4.21e-07	105.47 m/s
315 K, 195.64 kPa	7.57e-07	112.23 m/s
315 K, 234.75 kPa	6.39e-07	111.1 m/s
315 K, 272.93 kPa	5.38e-07	109.92 m/s
315 K, 312.27 kPa	4.61e-07	108.66 m/s
315 K, 357.7 kPa	3.99e-07	107.16 m/s
315 K, 410.27 kPa	3.42e-07	105.34 m/s
320 K, 122.6 kPa	1.12e-06	115.18 m/s
320 K, 172.92 kPa	9.2e-07	113.83 m/s
320 K, 222.82 kPa	6.6e-07	112.47 m/s
320 K, 274.43 kPa	5.38e-07	111.03 m/s
320 K, 326.85 kPa	4.48e-07	109.44 m/s
320 K, 380.03 kPa	3.92e-07	107.76 m/s
320 K, 482.22 kPa	2.95e-07	104.31 m/s
330 K, 117.49 kPa	1.43e-06	117.54 m/s
330 K, 189.29 kPa	8.81e-07	115.79 m/s
330 K, 215.35 kPa	7.77e-07	115.12 m/s
330 K, 288.39 kPa	5.63e-07	113.25 m/s
330 K, 290.78 kPa	5.67e-07	113.11 m/s
330 K, 368.85 kPa	4.3e-07	111.06 m/s
330 K, 376.53 kPa	4.2e-07	110.78 m/s
330 K, 450.7 kPa	3.45e-07	108.71 m/s
330 K, 465.61 kPa	3.3e-07	108.18 m/s
330 K, 534.61 kPa	2.83e-07	106.13 m/s
330 K, 536.09 kPa	2.8e-07	106 m/s
330 K, 621.46 kPa	2.37e-07	103.15 m/s and 103.25 m/s
345.04 K, 244.86 kPa	7.3e-07	117.72 m/s
345.04 K, 347.35 kPa	5.14e-07	115.42 m/s
345.04 K, 445.79 kPa	3.86e-07	113.12 m/s
345.04 K, 553.32 kPa	3.05e-07	110.35 m/s
345.04 K, 652.37 kPa	2.52e-07	107.68 m/s
345.04 K, 772.66 kPa	2.06e-07	104.17 m/s
345.04 K, 881.89 kPa	1.76e-07	100.69 m/s
360 K, 216.1 kPa	9.15e-07	121.47 m/s
360 K, 407.3 kPa	4.74e-07	117.75 m/s
360 K, 609.73 kPa	3.2e-07	113.46 m/s
360 K, 802.73 kPa	2.19e-07	108.94 m/s
360 K, 1012.2 kPa	1.68e-07	103.47 m/s
360 K, 1203.3 kPa	1.35e-07	97.73 m/s
375 K, 183.85 kPa	1.12e-06	124.97 m/s
375 K, 378.87 kPa	5.53e-07	121.72 m/s
375 K, 568.99 kPa	3.54e-07	118.34 m/s
375 K, 758.63 kPa	2.59e-07	114.75 m/s
375 K, 960.1 kPa	2.05e-07	110.61 m/s
375 K, 1188.2 kPa	1.56e-07	105.48 m/s
375 K, 1402 kPa	1.28e-07	100.08 m/s
375 K, 1620.4 kPa	1.06e-07	93.75 m/s

F[Si](F)(F)F [silicon tetrafluoride]
Details	kinematic viscosity [m2/s]	speed of sound [m/s]
215 K, 198.15 kPa	1.06e-06	136.99
215 K, 283.66 kPa	7.32e-07	135.34
215 K, 378.5 kPa	5.24e-07	133.42
215 K, 461.43 kPa	4.37e-07	131.7
215 K, 551.52 kPa	3.6e-07	129.72
215 K, 649.39 kPa	3.03e-07	127.46
215 K, 746.64 kPa	2.59e-07	125.06
230 K, 271.49 kPa	8.88e-07	141.02
230 K, 424.62 kPa	5.63e-07	138.59
230 K, 578.31 kPa	3.98e-07	136.01
230 K, 742.99 kPa	2.84e-07	133.07
230 K, 897.83 kPa	2.5e-07	130.19
230 K, 1088.3 kPa	2.9e-07	126.35
230 K, 1251 kPa	1.76e-07	122.68
245 K, 248.32 kPa	1.09e-06	146.4
245 K, 393.67 kPa	6.6e-07	144.55
245 K, 542.46 kPa	4.92e-07	142.59
245 K, 703.75 kPa	3.7e-07	140.39
245 K, 873.41 kPa	2.95e-07	138
245 K, 1034.5 kPa	2.46e-07	135.63
245 K, 1220 kPa	2.08e-07	132.78
245 K, 1434.3 kPa	1.74e-07	129.26
245 K, 1599.8 kPa	1.55e-07	126.37
245 K, 1777.8 kPa	1.4e-07	123.04
245 K, 1958.5 kPa	1.25e-07	119.34
260 K, 206.14 kPa	1.34e-06	151.46
260 K, 410.06 kPa	7.49e-07	149.46
260 K, 617.98 kPa	4.82e-07	147.22
260 K, 830.76 kPa	3.54e-07	144.88
260 K, 1047.1 kPa	2.74e-07	142.41
260 K, 1252 kPa	2.3e-07	140.01
260 K, 1498.2 kPa	1.91e-07	137.01
260 K, 1794.3 kPa	1.58e-07	133.23
260 K, 2026.6 kPa	1.39e-07	130.08
260 K, 2282.2 kPa	1.25e-07	126.45
260 K, 2541.7 kPa	1.1e-07	122.51
274.58 K, 524.86 kPa	6.36e-07	153.14
274.58 K, 642.96 kPa	5.09e-07	152.03
274.58 K, 744.26 kPa	4.24e-07	151.15
274.58 K, 845.26 kPa	3.88e-07	150.26
274.58 K, 947.16 kPa	3.48e-07	149.34
274.58 K, 1048.3 kPa	3.11e-07	148.41
274.58 K, 1150.3 kPa	2.86e-07	147.47
274.58 K, 1252.2 kPa	2.59e-07	146.53
274.58 K, 1353.8 kPa	2.42e-07	145.57
274.58 K, 1454.6 kPa	2.28e-07	144.62
274.58 K, 1556 kPa	2.09e-07	143.64
274.58 K, 1657.9 kPa	2.01e-07	142.67
274.58 K, 1764.4 kPa	1.82e-07	141.62
274.58 K, 1878.1 kPa	1.7e-07	140.5
274.58 K, 1998.5 kPa	1.64e-07	139.34
274.58 K, 2141.9 kPa	1.52e-07	137.92
274.58 K, 2244.2 kPa	1.42e-07	136.85
274.58 K, 2354.1 kPa	1.36e-07	135.74
274.58 K, 2474 kPa	1.31e-07	134.5
274.58 K, 2776.6 kPa	1.15e-07	131.33
274.58 K, 2951.3 kPa	1.08e-07	129.47
300 K, 386.04 kPa	1.14e-06	161.89
300 K, 581.57 kPa	7.42e-07	160.87
300 K, 775.29 kPa	5.2e-07	159.49
300 K, 975.51 kPa	4.04e-07	158.17
300 K, 1173.9 kPa	3.25e-07	156.88
300 K, 1443.4 kPa	2.69e-07	155.17
300 K, 1648.7 kPa	2.37e-07	153.86
300 K, 1872.1 kPa	2.11e-07	152.44
300 K, 2157.9 kPa	1.71e-07	150.6
300 K, 2526.1 kPa	1.53e-07	148.3
324.96 K, 582.54 kPa	8.84e-07	168.12
324.96 K, 731.36 kPa	6e-07	167.21
324.96 K, 1070.8 kPa	4.22e-07	165.71
324.96 K, 1257.4 kPa	3.6e-07	164.87
324.96 K, 1487.6 kPa	3.1e-07	163.84
324.96 K, 1769 kPa	2.59e-07	162.6
324.96 K, 1936.2 kPa	2.42e-07	161.88
324.96 K, 2114.4 kPa	2.11e-07	161.1
324.96 K, 2322.2 kPa	1.99e-07	160.23
324.96 K, 2541 kPa	1.84e-07	159.34

FS(F)(F)(F)(F)F [sulfur hexafluoride]
273.16 K
Details	kinematic viscosity [m2/s]	speed of sound [m/s]
290.38 kPa	7.19e-07	126.14
386.66 kPa	5.33e-07	124.46
492.4 kPa	4.1e-07	122.54
602.05 kPa	3.28e-07	120.45
712.29 kPa	2.72e-07	118.25
808.73 kPa	2.35e-07	116.21
903.28 kPa	2.24e-07	114.14
1000.5 kPa	1.81e-07	111.81
